Laboratory results published in PubChem BioAssay AID1259407 (Chemical Carcinogenesis Research Information System (CCRIS), 2018).
The source made the active and inactive calls. No rule for the calls is given here.

Test system: CCRIS mutagenicity, Ames/micronucleus/aberration tests
Assay: CCRIS mutagenicity studies
[1] = Test System: AMES SALMONELLA TYPHIMURIUM, Strain/Indicator: TA98, Metabolic Activation: NONE, Method: STANDARD PLATE

SMILES: Nc1ncc([N+](=O)[O-])s1
- mutagenic call (Test System: AMES SALMONELLA TYPHIMURIUM, Strain/Indicator: TA98, Metabolic Activation: HAMSTER, LIVER, S-9, AROCLOR 1254, Method: STANDARD PLATE): inactive; negative
- mutagenic call (Test System: AMES SALMONELLA TYPHIMURIUM, Strain/Indicator: TA98, Metabolic Activation: HAMSTER, LIVER, S-9, Method: STANDARD PLATE): inactive; negative
- mutagenic call (Test System: AMES SALMONELLA TYPHIMURIUM, Strain/Indicator: TA98, Metabolic Activation: MOUSE, LIVER, S-9, AROCLOR 1254, Method: STANDARD PLATE): inactive; negative
- mutagenic call (Test System: AMES SALMONELLA TYPHIMURIUM, Strain/Indicator: TA98, Metabolic Activation: MOUSE, LIVER, S-9, Method: STANDARD PLATE): inactive; negative
- mutagenic call [1]: inactive; negative
- mutagenic call (Test System: AMES SALMONELLA TYPHIMURIUM, Strain/Indicator: TA98, Metabolic Activation: RAT, LIVER, S-9, AROCLOR 1254, Method: STANDARD PLATE): inactive; negative
- mutagenic call (Test System: AMES SALMONELLA TYPHIMURIUM, Strain/Indicator: TA98, Metabolic Activation: RAT, LIVER, S-9, Method: STANDARD PLATE): inactive; negative
- mutagenic call (Test System: AMES SALMONELLA TYPHIMURIUM, Strain/Indicator: TA100, Metabolic Activation: HAMSTER, LIVER, S-9, AROCLOR 1254, Method: STANDARD PLATE): inactive; negative
- mutagenic call (Test System: AMES SALMONELLA TYPHIMURIUM, Strain/Indicator: TA100, Metabolic Activation: NONE, Method: STANDARD PLATE): inactive; negative
- mutagenic call (Test System: AMES SALMONELLA TYPHIMURIUM, Strain/Indicator: TA1535, Metabolic Activation: HAMSTER, LIVER, S-9, AROCLOR 1254, Method: STANDARD PLATE): inactive; negative
- mutagenic call (Test System: AMES SALMONELLA TYPHIMURIUM, Strain/Indicator: TA1535, Metabolic Activation: HAMSTER, LIVER, S-9, Method: STANDARD PLATE): inactive; negative
- mutagenic call (Test System: AMES SALMONELLA TYPHIMURIUM, Strain/Indicator: TA1535, Metabolic Activation: MOUSE, LIVER, S-9, AROCLOR 1254, Method: STANDARD PLATE): inactive; negative
- mutagenic call (Test System: AMES SALMONELLA TYPHIMURIUM, Strain/Indicator: TA1535, Metabolic Activation: MOUSE, LIVER, S-9, Method: STANDARD PLATE): inactive; negative
- mutagenic call (Test System: AMES SALMONELLA TYPHIMURIUM, Strain/Indicator: TA1535, Metabolic Activation: NONE, Method: STANDARD PLATE): inactive; negative
- mutagenic call (Test System: AMES SALMONELLA TYPHIMURIUM, Strain/Indicator: TA1535, Metabolic Activation: RAT, LIVER, S-9, AROCLOR 1254, Method: STANDARD PLATE): inactive; negative
- mutagenic call (Test System: AMES SALMONELLA TYPHIMURIUM, Strain/Indicator: TA1535, Metabolic Activation: RAT, LIVER, S-9, Method: STANDARD PLATE): inactive; negative
- mutagenic call (Test System: AMES SALMONELLA TYPHIMURIUM, Strain/Indicator: TA1537, Metabolic Activation: HAMSTER, LIVER, S-9, AROCLOR 1254, Method: STANDARD PLATE): inactive; negative
- mutagenic call (Test System: AMES SALMONELLA TYPHIMURIUM, Strain/Indicator: TA1537, Metabolic Activation: HAMSTER, LIVER, S-9, Method: STANDARD PLATE): inactive; negative
- mutagenic call (Test System: AMES SALMONELLA TYPHIMURIUM, Strain/Indicator: TA1537, Metabolic Activation: MOUSE, LIVER, S-9, AROCLOR 1254, Method: STANDARD PLATE): inactive; negative
- mutagenic call (Test System: AMES SALMONELLA TYPHIMURIUM, Strain/Indicator: TA1537, Metabolic Activation: MOUSE, LIVER, S-9, Method: STANDARD PLATE): inactive; negative
- mutagenic call (Test System: AMES SALMONELLA TYPHIMURIUM, Strain/Indicator: TA1537, Metabolic Activation: NONE, Method: STANDARD PLATE): inactive; negative
- mutagenic call (Test System: AMES SALMONELLA TYPHIMURIUM, Strain/Indicator: TA1537, Metabolic Activation: RAT, LIVER, S-9, AROCLOR 1254, Method: STANDARD PLATE): inactive; negative
- mutagenic call (Test System: AMES SALMONELLA TYPHIMURIUM, Strain/Indicator: TA1537, Metabolic Activation: RAT, LIVER, S-9, Method: STANDARD PLATE): inactive; negative
- mutagenic call (Test System: AMES SALMONELLA TYPHIMURIUM, Strain/Indicator: TA1538, Metabolic Activation: HAMSTER, LIVER, S-9, AROCLOR 1254, Method: STANDARD PLATE): inactive; negative
- mutagenic call (Test System: AMES SALMONELLA TYPHIMURIUM, Strain/Indicator: TA1538, Metabolic Activation: HAMSTER, LIVER, S-9, Method: STANDARD PLATE): inactive; negative
- mutagenic call (Test System: AMES SALMONELLA TYPHIMURIUM, Strain/Indicator: TA1538, Metabolic Activation: MOUSE, LIVER, S-9, AROCLOR 1254, Method: STANDARD PLATE): inactive; negative
- mutagenic call (Test System: AMES SALMONELLA TYPHIMURIUM, Strain/Indicator: TA1538, Metabolic Activation: MOUSE, LIVER, S-9, Method: STANDARD PLATE): inactive; negative
- mutagenic call (Test System: AMES SALMONELLA TYPHIMURIUM, Strain/Indicator: TA1538, Metabolic Activation: NONE, Method: STANDARD PLATE): inactive; negative
- mutagenic call (Test System: AMES SALMONELLA TYPHIMURIUM, Strain/Indicator: TA1538, Metabolic Activation: RAT, LIVER, S-9, AROCLOR 1254, Method: STANDARD PLATE): inactive; negative
- mutagenic call (Test System: AMES SALMONELLA TYPHIMURIUM, Strain/Indicator: TA1538, Metabolic Activation: RAT, LIVER, S-9, Method: STANDARD PLATE): inactive; negative
- mutagenic call (Test System: E. COLI, Strain/Indicator: WP2 UVRA, Metabolic Activation: HAMSTER, LIVER, S-9, AROCLOR 1254, Method: STANDARD PLATE): inactive; negative
- mutagenic call (Test System: E. COLI, Strain/Indicator: WP2 UVRA, Metabolic Activation: HAMSTER, LIVER, S-9, Method: STANDARD PLATE): inactive; negative
- mutagenic call (Test System: E. COLI, Strain/Indicator: WP2 UVRA, Metabolic Activation: MOUSE, LIVER, S-9, AROCLOR 1254, Method: STANDARD PLATE): inactive; negative
- mutagenic call (Test System: E. COLI, Strain/Indicator: WP2 UVRA, Metabolic Activation: MOUSE, LIVER, S-9, Method: STANDARD PLATE): inactive; negative
- mutagenic call (Test System: E. COLI, Strain/Indicator: WP2 UVRA, Metabolic Activation: NONE, Method: STANDARD PLATE): inactive; negative
- mutagenic call (Test System: E. COLI, Strain/Indicator: WP2 UVRA, Metabolic Activation: RAT, LIVER, S-9, AROCLOR 1254, Method: STANDARD PLATE): inactive; negative
- mutagenic call (Test System: E. COLI, Strain/Indicator: WP2 UVRA, Metabolic Activation: RAT, LIVER, S-9, Method: STANDARD PLATE): inactive; negative
- mutagenic call (Test System: MOUSE LYMPHOMA, Strain/Indicator: L5178Y (TK+/TK-), Metabolic Activation: NONE, Method: SUSPENSION/PLATE): active; positive
- mutagenic call (Test System: MOUSE LYMPHOMA, Strain/Indicator: L5178Y (TK+/TK-), Metabolic Activation: RAT, LIVER, S-9, AROCLOR 1254, Method: SUSPENSION/PLATE): active; positive

SMILES: O=[N+]([O-])c1ccc2c(ccc3ccccc32)c1
- mutagenic call (Test System: AMES SALMONELLA TYPHIMURIUM, Strain/Indicator: TA98(1,8-DNP6), Metabolic Activation: NONE, Method: STANDARD PLATE): active; positive
- mutagenic call (Test System: AMES SALMONELLA TYPHIMURIUM, Strain/Indicator: TA98(NR), Metabolic Activation: NONE, Method: STANDARD PLATE): active; positive
- mutagenic call (Test System: AMES SALMONELLA TYPHIMURIUM, Strain/Indicator: TA98, Metabolic Activation: NONE, Method: PREINCUBATION): active; positive
- mutagenic call [1]: active; positive
- mutagenic call (Test System: AMES SALMONELLA TYPHIMURIUM, Strain/Indicator: TA98, Metabolic Activation: RAT, LIVER, S-9, PCB (10%), Method: PREINCUBATION): active; positive
- mutagenic call (Test System: AMES SALMONELLA TYPHIMURIUM, Strain/Indicator: TA7001, Metabolic Activation: NONE, Method: PREINCUBATION): active; positive
- mutagenic call (Test System: AMES SALMONELLA TYPHIMURIUM, Strain/Indicator: TA7002, Metabolic Activation: NONE, Method: PREINCUBATION): active; positive
- mutagenic call (Test System: AMES SALMONELLA TYPHIMURIUM, Strain/Indicator: TA7003, Metabolic Activation: NONE, Method: PREINCUBATION): active; positive
- mutagenic call (Test System: AMES SALMONELLA TYPHIMURIUM, Strain/Indicator: TA7004, Metabolic Activation: NONE, Method: PREINCUBATION): active; positive
- mutagenic call (Test System: AMES SALMONELLA TYPHIMURIUM, Strain/Indicator: TA7005, Metabolic Activation: NONE, Method: PREINCUBATION): active; positive
- mutagenic call (Test System: AMES SALMONELLA TYPHIMURIUM, Strain/Indicator: TA7006, Metabolic Activation: NONE, Method: PREINCUBATION): active; positive
